Laboratory results from patent US20240050392A1, “COMPOSITIONS AND METHODS FOR IMPROVED TREATMENT OF PLATINUM-BASED CHEMOTHERAPEUTIC RESISTANT TUMORS” (THE REGENTS OF THE UNIVERSITY OF THE COLORADO, A BODY …, priority 2021, published 2024).

Experiments:
[1] = tested on: NPEPPS mRNA; assay: Cisplatin induced NPEPPS mRNA expression (RT-qPCR); assay type: cell-based, human
Protocol: Cisplatin induced NPEPPS mRNA expression. Total RNA was isolated from cells using Trizol (ThermoFisher) and/or phenol-chloroform based extraction methods. Residual DNA was digested with DNAse I (Life technologies). cDNA synthesis was performed using Superscript II Reverse Transcriptase kit (Life technologies) using random primers. RT-qPCR reactions were performed on a CFX Connect Real-Time PCR Detection System thermocycler (Bio-Rad) using TaqMan gene expression assays for NPEPPS and HMBS as a housekeeping gene (ThermoFisher) in combination with SensiFAST Probe No-ROX Kit (Bioline, Toronto, Canada). Expression data was calculated using 2^−ΔΔCt. All cell line experiments were performed in triplicate from independently grown cells. Comparisons at the indicated dose of cisplatin were made to the control treatment (0 μM cisplatin) using a t-test.

[2] = cited from earlier work
[3] = target: T1, volume regulated anion channel (VRAC), LRRC8A and LRRC8D (Homo sapiens, UniProt Q7L1W4+Q8IWT6); conditions: as reported; cited from earlier work
T1 sequence (Q8IWT6 1-810): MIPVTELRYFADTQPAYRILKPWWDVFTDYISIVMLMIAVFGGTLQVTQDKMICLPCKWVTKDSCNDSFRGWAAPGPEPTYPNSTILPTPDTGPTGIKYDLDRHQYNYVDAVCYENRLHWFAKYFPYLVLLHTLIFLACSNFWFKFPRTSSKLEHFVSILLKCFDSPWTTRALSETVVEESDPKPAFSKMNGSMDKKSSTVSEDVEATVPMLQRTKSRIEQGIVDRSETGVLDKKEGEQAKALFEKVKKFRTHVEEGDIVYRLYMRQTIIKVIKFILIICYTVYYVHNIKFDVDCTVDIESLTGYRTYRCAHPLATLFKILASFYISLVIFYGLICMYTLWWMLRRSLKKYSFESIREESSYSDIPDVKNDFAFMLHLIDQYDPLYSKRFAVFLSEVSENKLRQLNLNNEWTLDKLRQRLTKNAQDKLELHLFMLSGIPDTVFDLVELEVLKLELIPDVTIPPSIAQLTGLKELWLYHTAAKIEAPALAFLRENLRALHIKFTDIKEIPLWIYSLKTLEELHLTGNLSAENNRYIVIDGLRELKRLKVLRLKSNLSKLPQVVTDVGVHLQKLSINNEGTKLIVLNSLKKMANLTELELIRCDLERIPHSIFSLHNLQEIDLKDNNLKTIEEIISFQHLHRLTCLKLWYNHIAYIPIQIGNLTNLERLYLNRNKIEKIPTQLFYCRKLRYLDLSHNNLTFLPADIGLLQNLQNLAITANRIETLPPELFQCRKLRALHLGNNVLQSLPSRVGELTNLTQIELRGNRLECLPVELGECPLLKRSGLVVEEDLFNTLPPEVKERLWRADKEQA
T1 sequence (Q7L1W4 1-858): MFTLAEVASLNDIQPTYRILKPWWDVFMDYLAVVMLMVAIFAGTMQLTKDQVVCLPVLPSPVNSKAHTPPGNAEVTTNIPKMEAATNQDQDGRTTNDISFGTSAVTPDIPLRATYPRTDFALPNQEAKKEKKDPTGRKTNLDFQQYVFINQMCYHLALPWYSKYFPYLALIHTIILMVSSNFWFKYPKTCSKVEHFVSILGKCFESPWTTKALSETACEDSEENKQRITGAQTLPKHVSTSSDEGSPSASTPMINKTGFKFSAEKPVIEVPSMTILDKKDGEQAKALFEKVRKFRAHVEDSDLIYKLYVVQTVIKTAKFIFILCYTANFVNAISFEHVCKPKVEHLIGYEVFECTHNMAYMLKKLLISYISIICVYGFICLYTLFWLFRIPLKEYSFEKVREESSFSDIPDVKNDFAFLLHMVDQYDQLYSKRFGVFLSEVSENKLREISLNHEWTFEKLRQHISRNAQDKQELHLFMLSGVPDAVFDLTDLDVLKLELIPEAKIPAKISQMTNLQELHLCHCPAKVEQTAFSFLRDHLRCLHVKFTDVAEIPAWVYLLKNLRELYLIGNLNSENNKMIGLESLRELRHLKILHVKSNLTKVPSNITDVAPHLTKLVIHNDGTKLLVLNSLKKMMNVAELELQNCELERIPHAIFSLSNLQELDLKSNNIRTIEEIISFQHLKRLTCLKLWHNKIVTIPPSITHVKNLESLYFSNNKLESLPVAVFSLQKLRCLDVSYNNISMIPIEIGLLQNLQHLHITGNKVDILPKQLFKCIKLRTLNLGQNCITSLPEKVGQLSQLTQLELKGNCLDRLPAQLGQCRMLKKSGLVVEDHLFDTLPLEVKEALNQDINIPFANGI

N.N.[Cl][Pt][Cl] [cisplatin]
NPEPPS mRNA ([1]; KU1919-Par and KU1919-GemCis cells after 24 hours of cisplatin treatment): increased | NPEPPS induction ([1]; patient-derived organoids treated with cisplatin): induced NPEPPS in a dose dependent manner | maximum concentration of cisplatin in patients [2]: 14 µM | share of intracellular cisplatin transported through VRAC channels [3]: 50-70%
